Results: patent publication US20050119231A1, “Quinolone antibacterial agents” (priority 2003, published 2005)
Converted amounts (≈) assume the structure as drawn.

What was measured:
Test in all cases: Antibacterial microtitration assay (Test A), MIC
Assay type in all cases: cell-based
[1] = system: E. coli EC-2549; settings: Escherichia coli, EC2549; Gram Negative Bacteria; strain EC-2549; read-out: Minimum Inhibitory Concentrations E. coli EC-2549
Protocol: (§1) Test A—Antibacterial Assays
(§2) The compounds of the present invention were tested against an assortment of Gram-negative and Gram-positive organisms using standard microtitration techniques (Cohen et. al., Antimicrob., 1985;28:766; Heifetz, et. al., Antimicrob., 1974;6:124).

[2] = system: H. influenzae HI-3542; settings: Haemophilus influenzae, HI3542; Gram Negative Bacteria; strain HI-3542; read-out: Minimum Inhibitory Concentrations H. influenzae HI-3542
Protocol: as §1, §2

[3] = system: M. catarrhalis BC-3531; settings: Moraxella catarrhalis, BC3531; Gram Negative Bacteria; strain BC-3531; read-out: Minimum Inhibitory Concentrations M. catarrhalis BC-3531
Protocol: as §1, §2

[4] = system: S. pneumo SV-1; settings: Streptococcus pneumoniae, SV1; Gram Positive Bacteria; strain SV-1; read-out: Minimum Inhibitory Concentrations S. pneumo SV-1
Protocol: as §1, §2

[5] = system: E. faecalis MGH-2; settings: Enterococcus faecalis, MGH2; Gram Positive Bacteria; strain MGH-2; read-out: Minimum Inhibitory Concentrations E. faecalis MGH-2
Protocol: as §1, §2

[6] = system: S pyogenes C203; settings: Gram Positive Bacteria; strain C203; read-out: Minimum Inhibitory Concentrations S pyogenes C203
Protocol: as §1, §2

[7] = system: S. aureus UC-76; settings: Staphylococcus aureus, UC76; Gram Positive Bacteria; strain UC-76; read-out: Minimum Inhibitory Concentrations S. aureus UC-76
Protocol: as §1, §2

Structure (SMILES)	MIC [1]	MIC [2]	MIC [3]	MIC [4]	MIC [5]	MIC [6]	MIC [7]
Cc1c(N2CCC(CO)C2)c(F)cc2c(=O)n(N)c(=O)n(C3CC3)c12 (stereo not shown) [drawing 311]	4 µg/mL (≈ 11.5 µM)	0.5 µg/mL (≈ 1.44 µM)	1 µg/mL (≈ 2.87 µM)	–	–	–	–
COc1c(N2CCC(C(O)c3ncco3)C2)c(F)cc2c(=O)n(N)c(=O)n(C3CC3)c12 (stereo not shown) [drawing 312]	32 µg/mL (≈ 74.2 µM)	2 µg/mL (≈ 4.64 µM)	2 µg/mL (≈ 4.64 µM)	–	–	–	–
Cc1c(N2CCC(C(O)c3ncco3)C2)c(F)cc2c(=O)n(N)c(=O)n(C3CC3)c12 (stereo not shown) [drawing 313]	16 µg/mL (≈ 38.5 µM)	1 µg/mL (≈ 2.41 µM)	2 µg/mL (≈ 4.81 µM)	–	–	–	–
COc1c(N2CCC(C(O)C(C)(F)F)C2)c(F)cc2c(=O)n(N)c(=O)n(C3CC3)c12 (stereo not shown) [drawing 314]	64 µg/mL (≈ 149 µM)	4 µg/mL (≈ 9.34 µM)	8 µg/mL (≈ 18.7 µM)	–	–	–	–
COc1c(N2CCC(CCO)C2)c(F)cc2c(=O)n(N)c(=O)n(C3CC3)c12 (stereo not shown) [drawing 315]	16 µg/mL (≈ 42.3 µM)	2 µg/mL (≈ 5.29 µM)	1 µg/mL (≈ 2.64 µM)	–	–	–	–
COc1c(N2CCC(C(O)C3(CO)CC3)C2)c(F)cc2c(=O)n(N)c(=O)n(C3CC3)c12 (stereo not shown) [drawing 316]	8 µg/mL (≈ 18.4 µM)	1 µg/mL (≈ 2.3 µM)	1 µg/mL (≈ 2.3 µM)	–	–	–	–
Cc1c(N2CCC(C(O)CO)C2)c(F)cc2c(=O)n(N)c(=O)n(C3CC3)c12 (stereo not shown) [drawing 317]	4 µg/mL (≈ 10.6 µM)	0.5 µg/mL (≈ 1.32 µM)	1 µg/mL (≈ 2.64 µM)	–	–	–	–
COc1c(N2CCC(C(O)C(F)(F)F)C2)c(F)cc2c(=O)n(N)c(=O)n(C3CC3)c12 (stereo not shown) [drawing 318]	2 µg/mL (≈ 4.63 µM)	0.125 µg/mL (≈ 0.289 µM)	0.125 µg/mL (≈ 0.289 µM)	–	–	–	–
COCC1CCN(c2c(F)cc3c(=O)n(N)c(=O)n(C4CC4)c3c2OC)C1 (stereo not shown) [drawing 319]	32 µg/mL (≈ 84.6 µM)	4 µg/mL (≈ 10.6 µM)	4 µg/mL (≈ 10.6 µM)	–	–	–	–
Cc1c(N2CCC(CO)C2)c(F)cc2c(=O)n(N)c(=O)n(C3CC3)c12 (stereo not shown) [drawing 320]	–	–	–	1 µg/mL (≈ 2.87 µM)	2 µg/mL (≈ 5.74 µM)	2 µg/mL (≈ 5.74 µM)	0.5 µg/mL (≈ 1.44 µM)
COc1c(N2CCC(C(O)c3ncco3)C2)c(F)cc2c(=O)n(N)c(=O)n(C3CC3)c12 (stereo not shown) [drawing 321]	–	–	–	8 µg/mL (≈ 18.5 µM)	8 µg/mL (≈ 18.5 µM)	8 µg/mL (≈ 18.5 µM)	0.5 µg/mL (≈ 1.16 µM)
Cc1c(N2CCC(C(O)c3ncco3)C2)c(F)cc2c(=O)n(N)c(=O)n(C3CC3)c12 (stereo not shown) [drawing 322]	–	–	–	4 µg/mL (≈ 9.63 µM)	8 µg/mL (≈ 19.3 µM)	4 µg/mL (≈ 9.63 µM)	1 µg/mL (≈ 2.41 µM)
COc1c(N2CCC(C(O)C(C)(F)F)C2)c(F)cc2c(=O)n(N)c(=O)n(C3CC3)c12 (stereo not shown) [drawing 323]	–	–	–	8 µg/mL (≈ 18.7 µM)	16 µg/mL (≈ 37.3 µM)	8 µg/mL (≈ 18.7 µM)	2 µg/mL (≈ 4.67 µM)
COc1c(N2CCC(CCO)C2)c(F)cc2c(=O)n(N)c(=O)n(C3CC3)c12 (stereo not shown) [drawing 324]	–	–	–	2 µg/mL (≈ 5.29 µM)	4 µg/mL (≈ 10.6 µM)	4 µg/mL (≈ 10.6 µM)	0.5 µg/mL (≈ 1.32 µM)
COc1c(N2CCC(C(O)C3(CO)CC3)C2)c(F)cc2c(=O)n(N)c(=O)n(C3CC3)c12 (stereo not shown) [drawing 325]	–	–	–	4 µg/mL (≈ 9.21 µM)	4 µg/mL (≈ 9.21 µM)	8 µg/mL (≈ 18.4 µM)	0.5 µg/mL (≈ 1.15 µM)
Cc1c(N2CCC(C(O)CO)C2)c(F)cc2c(=O)n(N)c(=O)n(C3CC3)c12 (stereo not shown) [drawing 326]	–	–	–	1 µg/mL (≈ 2.64 µM)	2 µg/mL (≈ 5.29 µM)	1 µg/mL (≈ 2.64 µM)	0.25 µg/mL (≈ 0.661 µM)

Structure (SMILES)	MIC [1]	MIC [2]	MIC [3]	MIC [4]	MIC [5]	MIC [6]	MIC [7]
COc1c(N2CCC(C(O)C(F)(F)F)C2)c(F)cc2c(=O)n(N)c(=O)n(C3CC3)c12 (stereo not shown) [drawing 327]	–	–	–	0.5 µg/mL (≈ 1.16 µM)	1 µg/mL (≈ 2.31 µM)	1 µg/mL (≈ 2.31 µM)	0.06 µg/mL (≈ 0.139 µM)
COCC1CCN(c2c(F)cc3c(=O)n(N)c(=O)n(C4CC4)c3c2OC)C1 (stereo not shown) [drawing 328]	–	–	–	2 µg/mL (≈ 5.29 µM)	4 µg/mL (≈ 10.6 µM)	4 µg/mL (≈ 10.6 µM)	1 µg/mL (≈ 2.64 µM)
Nn1c(=O)c2cc(F)c(N3C[C@@H](CO)[C@@H](CO)C3)nc2n(C2CC2)c1=O [drawing 330]	16 µg/mL (≈ 43.8 µM)	0.5 µg/mL (≈ 1.37 µM)	1 µg/mL (≈ 2.74 µM)	–	–	–	–
Nn1c(=O)c2cc(F)c(N3C[C@H](CO)[C@@H](CO)C3)nc2n(C2CC2)c1=O [drawing 331]	32 µg/mL (≈ 87.6 µM)	1 µg/mL (≈ 2.74 µM)	4 µg/mL (≈ 10.9 µM)	–	–	–	–
Nn1c(=O)c2cc(F)c(N3C[C@@H](O)[C@@H](O)C3)nc2n(C2CC2)c1=O [drawing 332]	16 µg/mL (≈ 47.4 µM)	0.5 µg/mL (≈ 1.48 µM)	2 µg/mL (≈ 5.93 µM)	–	–	–	–
Nn1c(=O)c2cc(F)c(N3C[C@@H](CCO)[C@@H](CCO)C3)nc2n(C2CC2)c1=O [drawing 333]	0.125 µg/mL (≈ 0.318 µM)	0.015 µg/mL (≈ 0.0381 µM)	0.06 µg/mL (≈ 0.153 µM)	–	–	–	–
Nn1c(=O)c2cc(F)c(N3C[C@H](CO)[C@H](F)C3)nc2n(C2CC2)c1=O [drawing 334]	4 µg/mL (≈ 11.3 µM)	0.5 µg/mL (≈ 1.42 µM)	1 µg/mL (≈ 2.83 µM)	–	–	–	–
Nn1c(=O)c2cc(F)c(N3C[C@@H](CO)[C@@H](CO)C3)nc2n(C2CC2)c1=O [drawing 335]	–	–	–	2 µg/mL (≈ 5.47 µM)	4 µg/mL (≈ 10.9 µM)	1 µg/mL (≈ 2.74 µM)	0.25 µg/mL (≈ 0.684 µM)
Nn1c(=O)c2cc(F)c(N3C[C@H](CO)[C@@H](CO)C3)nc2n(C2CC2)c1=O [drawing 336]	–	–	–	4 µg/mL (≈ 10.9 µM)	8 µg/mL (≈ 21.9 µM)	2 µg/mL (≈ 5.47 µM)	0.5 µg/mL (≈ 1.37 µM)
Nn1c(=O)c2cc(F)c(N3C[C@@H](O)[C@@H](O)C3)nc2n(C2CC2)c1=O [drawing 337]	–	–	–	8 µg/mL (≈ 23.7 µM)	8 µg/mL (≈ 23.7 µM)	8 µg/mL (≈ 23.7 µM)	2 µg/mL (≈ 5.93 µM)
Nn1c(=O)c2cc(F)c(N3C[C@@H](CCO)[C@@H](CCO)C3)nc2n(C2CC2)c1=O [drawing 338]	–	–	–	0.03 µg/mL (≈ 0.0763 µM)	0.06 µg/mL (≈ 0.153 µM)	0.03 µg/mL (≈ 0.0763 µM)	0.002 µg/mL (≈ 0.00508 µM)
Nn1c(=O)c2cc(F)c(N3C[C@H](CO)[C@H](F)C3)nc2n(C2CC2)c1=O [drawing 339]	–	–	–	2 µg/mL (≈ 5.66 µM)	4 µg/mL (≈ 11.3 µM)	4 µg/mL (≈ 11.3 µM)	0.25 µg/mL (≈ 0.708 µM)
Cc1c(N2C[C@](C)(CO)[C@](C)(CO)C2)c(F)cc2c(=O)n(N)c(=O)n(C3CC3)c12 [drawing 341]	64 µg/mL (≈ 157 µM)	16 µg/mL (≈ 39.4 µM)	32 µg/mL (≈ 78.7 µM)	–	–	–	–
Cc1c(N2C[C@](C)(CO)[C@](C)(CO)C2)c(F)cc2c(=O)n(N)c(=O)n(C3CC3)c12 [drawing 342]	–	–	–	16 µg/mL (≈ 39.4 µM)	16 µg/mL (≈ 39.4 µM)	32 µg/mL (≈ 78.7 µM)	2 µg/mL (≈ 4.92 µM)
Cc1c(N2CC3CCC(O)(CO)C3C2)c(F)cc2c(=O)n(N)c(=O)n(C3CC3)c12 (stereo not shown) [drawing 344]	32 µg/mL (≈ 79.1 µM)	4 µg/mL (≈ 9.89 µM)	4 µg/mL (≈ 9.89 µM)	–	–	–	–
Cc1c(N2CC3CCC(O)(CO)C3C2)c(F)cc2c(=O)n(N)c(=O)n(C3CC3)c12 (stereo not shown) [drawing 345]	–	–	–	8 µg/mL (≈ 19.8 µM)	8 µg/mL (≈ 19.8 µM)	8 µg/mL (≈ 19.8 µM)	1 µg/mL (≈ 2.47 µM)
